# The source made the active and inactive calls.
# What was measured:
# [1] = molecular target: T1, Alkaline phosphatase, tissue-nonspecific isozyme (Homo sapiens, UniProt P05186)
# T1 sequence (P05186 whole entry): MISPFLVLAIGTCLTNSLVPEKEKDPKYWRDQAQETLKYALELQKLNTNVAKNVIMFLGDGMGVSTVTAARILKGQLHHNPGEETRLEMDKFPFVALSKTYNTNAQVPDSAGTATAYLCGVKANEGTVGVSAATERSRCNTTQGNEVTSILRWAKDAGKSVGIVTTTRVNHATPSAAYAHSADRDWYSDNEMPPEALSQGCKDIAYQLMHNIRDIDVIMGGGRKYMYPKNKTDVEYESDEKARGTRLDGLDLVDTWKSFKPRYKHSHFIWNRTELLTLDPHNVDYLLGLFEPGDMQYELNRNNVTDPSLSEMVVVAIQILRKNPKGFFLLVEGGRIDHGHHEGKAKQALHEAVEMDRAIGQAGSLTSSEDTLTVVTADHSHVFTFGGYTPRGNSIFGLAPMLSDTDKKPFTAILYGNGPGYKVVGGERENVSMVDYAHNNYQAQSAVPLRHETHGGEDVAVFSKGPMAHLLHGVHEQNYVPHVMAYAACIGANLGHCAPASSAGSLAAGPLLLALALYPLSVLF
# [2] = molecular target: T2, Eukaryotic translation initiation factor 2-alpha kinase 3 (Homo sapiens, UniProt Q9NZJ5); experiment: Counterscreen assay for PERK inhibitors: Dose response cell-based high throughput screening assay to measure inhibition of PERK at 6 hours. [Related pubchem assays: 1522, 1416 ]; format: functional
# T2 sequence (Q9NZJ5 whole entry): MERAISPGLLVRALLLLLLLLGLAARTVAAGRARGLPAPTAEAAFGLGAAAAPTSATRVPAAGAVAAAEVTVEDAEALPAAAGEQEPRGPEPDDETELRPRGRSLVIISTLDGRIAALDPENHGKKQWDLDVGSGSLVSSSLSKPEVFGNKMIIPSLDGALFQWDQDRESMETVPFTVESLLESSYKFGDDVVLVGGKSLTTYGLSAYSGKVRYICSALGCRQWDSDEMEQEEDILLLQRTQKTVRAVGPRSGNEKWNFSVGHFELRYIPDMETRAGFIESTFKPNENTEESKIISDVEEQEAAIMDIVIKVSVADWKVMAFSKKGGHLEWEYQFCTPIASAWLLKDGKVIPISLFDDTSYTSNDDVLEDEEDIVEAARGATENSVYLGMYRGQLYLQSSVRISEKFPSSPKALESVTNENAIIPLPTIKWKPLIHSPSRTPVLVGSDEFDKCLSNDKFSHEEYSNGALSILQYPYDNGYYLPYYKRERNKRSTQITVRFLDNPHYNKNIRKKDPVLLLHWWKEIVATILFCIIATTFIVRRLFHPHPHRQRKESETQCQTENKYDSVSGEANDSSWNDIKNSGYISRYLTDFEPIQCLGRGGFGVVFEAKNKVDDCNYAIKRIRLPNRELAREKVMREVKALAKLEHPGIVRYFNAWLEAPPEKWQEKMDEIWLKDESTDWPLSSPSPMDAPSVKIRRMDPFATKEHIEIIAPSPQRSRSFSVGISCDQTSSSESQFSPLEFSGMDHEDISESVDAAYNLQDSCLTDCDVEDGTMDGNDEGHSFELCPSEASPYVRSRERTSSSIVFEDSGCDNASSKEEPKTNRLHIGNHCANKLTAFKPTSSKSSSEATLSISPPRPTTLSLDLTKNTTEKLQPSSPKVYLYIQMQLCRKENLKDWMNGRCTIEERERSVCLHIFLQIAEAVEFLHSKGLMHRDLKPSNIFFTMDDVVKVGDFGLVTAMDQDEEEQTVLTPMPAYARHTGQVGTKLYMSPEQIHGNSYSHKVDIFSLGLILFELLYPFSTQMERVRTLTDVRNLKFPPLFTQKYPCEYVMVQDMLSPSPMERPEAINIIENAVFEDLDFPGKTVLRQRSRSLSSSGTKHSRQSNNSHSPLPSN
# [3] = molecular target: T2, Eukaryotic translation initiation factor 2-alpha kinase 3; experiment: Dose response cell-based high-throughput screening assay to measure PERK inhibition. [Related pubchem assays: 1416 ]; format: functional
# [4] = molecular target: T3, Polyadenylate-binding protein 1 (Homo sapiens, UniProt P11940); experiment: PABP poly(A) RNA binding inhibitors, primary screen, biochemical, fluorescence polarization, uHTS (AID 2014)
# T3 sequence (P11940 whole entry): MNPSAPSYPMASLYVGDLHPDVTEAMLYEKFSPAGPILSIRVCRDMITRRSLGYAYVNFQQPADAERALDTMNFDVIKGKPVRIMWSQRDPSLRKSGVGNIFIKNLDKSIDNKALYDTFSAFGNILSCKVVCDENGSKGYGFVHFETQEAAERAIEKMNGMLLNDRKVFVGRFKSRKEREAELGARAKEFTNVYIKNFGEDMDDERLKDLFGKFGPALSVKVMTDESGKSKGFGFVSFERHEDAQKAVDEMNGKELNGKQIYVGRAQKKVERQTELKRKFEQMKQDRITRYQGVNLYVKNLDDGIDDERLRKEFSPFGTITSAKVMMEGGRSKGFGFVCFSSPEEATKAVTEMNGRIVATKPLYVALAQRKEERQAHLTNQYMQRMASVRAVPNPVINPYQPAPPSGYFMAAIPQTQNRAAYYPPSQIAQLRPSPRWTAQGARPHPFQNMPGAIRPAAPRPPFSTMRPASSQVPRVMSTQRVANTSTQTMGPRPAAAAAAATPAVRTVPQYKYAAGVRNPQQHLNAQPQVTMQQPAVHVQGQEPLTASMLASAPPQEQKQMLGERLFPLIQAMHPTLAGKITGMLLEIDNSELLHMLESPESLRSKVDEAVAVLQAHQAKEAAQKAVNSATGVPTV
# [5] = molecular target: T3, Polyadenylate-binding protein 1; experiment: PABP inhibition in translation initiation, SAR follow-up (AID 435018); format: functional
# [6] = molecular target: T4, Eukaryotic translation initiation factor 4H (Homo sapiens, UniProt Q15056); experiment: human eIF4H binding inhibitors, primary screen, translation initiation inhibitor project, biochemical, uHTS, fluorescence polarization (AID 2012)
# [7] = molecular target: T4, Eukaryotic translation initiation factor 4H; experiment: eIF4H inhibition in translation initiation, SAR follow-up (AID 435011); format: functional
# [8] = molecular target: T5, RNA-binding protein pos-1 (Caenorhabditis elegans, UniProt G5EF15); experiment: inhibitors of POS-1/mex-3 RNA binding, dose response, biochemical, fluorescence polarization (AID 1964);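 also: purified POS-1 fused to maltose binding protein made in E. coli; potency of compounds blocking POS-1 binding to fluorescent RNA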
# T5 sequence (G5EF15 whole entry): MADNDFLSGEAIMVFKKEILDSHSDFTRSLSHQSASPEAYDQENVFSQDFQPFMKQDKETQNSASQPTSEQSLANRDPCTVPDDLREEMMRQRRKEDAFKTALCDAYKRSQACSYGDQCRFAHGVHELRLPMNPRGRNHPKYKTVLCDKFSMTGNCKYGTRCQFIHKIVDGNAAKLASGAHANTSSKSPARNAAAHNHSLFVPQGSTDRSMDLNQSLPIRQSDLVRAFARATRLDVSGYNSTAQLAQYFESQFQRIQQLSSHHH
# [9] = Luminescence Cell-Based Dose Response HTS to Identify Inhibitors of 5'UTR Stem-Loop Driven Prion Protein mRNA Translation in H4 Neuroglioblastoma Cells. [Related pubchem assays: 1827 (Project Summary), 1813 (Primary HTS)]; format: functional
# [10] = growth suppression of beta-catenin-knockout colon cells, dose response, cell-based, HCT116, human colon tumor (AID 1045); format: functional;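 also: HCT116 colon tumor cells with beta catenin knocked out; cells exposed to compound for 60 hours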
# [11] = growth suppression of PTEN-null colon cells, dose response, cell-based, HCT116 PTEN knockout (AID 1047); format: functional;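 also: HCT116 colon tumor cells with PTEN knocked out; cells exposed to compound for 60 hours before readout; potency for loss of cell viability measured by luminescence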
# [12] = test system: Streptococcus sp. 'group A'; experiment: growth inhibition of control SK(-) GAS strain, dose response, counter-screen for streptokinase expression inhibitor project, luminescence, kanamycin, BacTiterGlo, confirmation (AID 1900); format: functional, organism-based
# [13] = inhibitors of firefly luciferase expression or activity, dose response, H4 neuroglioma cells, luminescence (AID 1990); format: functional, cell-based
# INS1 = experiment: beta cell apoptosis inhibitors, cytokine rescue, dose response, luminescence, retest (AID 449756); format: functional, cell-based; details: Rattus norvegicus;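 also: cell death triggered by IL-1 beta plus TNF-alpha plus IFN-gamma mixture; protective hits raise ATP signal compared with cytokine alone wells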
# [14] = microbe, parasite or virus in culture; format: functional; details: Mycobacterium tuberculosis
# [15] = molecular target: Neurotensin receptor type 1 (Homo sapiens, UniProt P30989); format: functional;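 also: Image-based confirmatory dose-response assay measuring agonist activity at NTR1; NTR1-expressing U2OS osteosarcoma cells imaged for beta-arrestin GFP spot formation; agonist potency where compounds increase beta-arrestin recruitment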
# Neurotensin receptor type 1, sequence (P30989 whole entry): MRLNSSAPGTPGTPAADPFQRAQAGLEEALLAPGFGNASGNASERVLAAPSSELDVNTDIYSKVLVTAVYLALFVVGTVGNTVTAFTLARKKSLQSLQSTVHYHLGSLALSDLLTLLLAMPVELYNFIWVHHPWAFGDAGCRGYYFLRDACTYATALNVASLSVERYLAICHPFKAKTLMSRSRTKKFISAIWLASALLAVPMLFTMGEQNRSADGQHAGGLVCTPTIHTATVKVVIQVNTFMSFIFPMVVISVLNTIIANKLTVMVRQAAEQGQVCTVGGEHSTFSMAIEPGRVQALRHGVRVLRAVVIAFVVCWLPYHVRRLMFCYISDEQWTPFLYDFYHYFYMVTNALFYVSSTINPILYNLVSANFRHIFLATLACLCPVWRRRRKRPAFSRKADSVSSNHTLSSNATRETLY
# [16] = cytotoxicity in HEK-293T cells, dose response, cytotoxicity control for TCR NF-kB inhibitor project, luminescence, T-cell screen hits (AID 489026); format: functional, cell-based;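 also: cells exposed to compound about 14 hours before the viability readout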
# Streptokinase A = molecular target: T6, Streptokinase A (Streptococcus pyogenes serotype M1, UniProt P10520); experiment: S. pyogenes streptokinase expression inhibitors, potency, dose response, plasminogen activation absorbance, OD405 (AID 1914); format: functional, Streptococcus pyogenes M1 GAS;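 also: secreted streptokinase activity via plasminogen activation per viability signal from cell pellet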
# T6 sequence (P10520 whole entry): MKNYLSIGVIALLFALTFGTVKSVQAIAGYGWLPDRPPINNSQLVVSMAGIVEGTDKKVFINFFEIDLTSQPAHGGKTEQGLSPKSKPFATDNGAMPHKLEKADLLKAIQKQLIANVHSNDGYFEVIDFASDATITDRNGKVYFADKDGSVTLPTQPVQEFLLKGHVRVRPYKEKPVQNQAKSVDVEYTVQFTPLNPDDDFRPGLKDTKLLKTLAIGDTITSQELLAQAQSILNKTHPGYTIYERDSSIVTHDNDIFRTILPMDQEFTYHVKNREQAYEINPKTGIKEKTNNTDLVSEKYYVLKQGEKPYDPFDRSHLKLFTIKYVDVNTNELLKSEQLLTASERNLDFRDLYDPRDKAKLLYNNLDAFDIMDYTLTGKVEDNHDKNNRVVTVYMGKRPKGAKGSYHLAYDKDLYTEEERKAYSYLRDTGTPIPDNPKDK
# Streptococcus = experiment: Group A Streptococcus viability loss, dose response, counter-screen for streptokinase expression inhibitor project, luminescence, BacTiterGlo (AID 1915); format: functional, organism-based;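 also: potency for reduction of bacterial viability or growth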
# Melanocortin receptor 4 = Melanocortin receptor 4 (Homo sapiens, UniProt P32245); format: functional, cell-based;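 also: Cell-based assay with luminescence read-out, confirmatory dose-response testing for agonist activity of biased ligands at MC4R; human U2OS cells with tagged receptor and beta-arrestin; potency of agonists that increase receptor coupling to beta-arrestin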
# Melanocortin receptor 4, sequence (P32245 whole entry): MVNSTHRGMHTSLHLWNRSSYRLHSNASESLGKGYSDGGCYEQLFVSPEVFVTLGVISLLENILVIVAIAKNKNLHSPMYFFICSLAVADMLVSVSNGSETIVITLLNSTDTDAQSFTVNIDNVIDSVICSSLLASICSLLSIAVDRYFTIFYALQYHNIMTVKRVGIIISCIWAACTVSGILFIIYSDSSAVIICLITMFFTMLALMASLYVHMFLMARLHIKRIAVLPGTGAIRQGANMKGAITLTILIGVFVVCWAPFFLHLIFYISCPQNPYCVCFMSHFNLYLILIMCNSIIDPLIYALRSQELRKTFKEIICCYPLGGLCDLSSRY
# [17] = inhibitors of SNCA 5'UTR-driven reporter translation, confirmation, H4 neuroglioma cells, luminescence (AID 1988); format: functional, cell-based
# [18] = molecular target: T7, Heat shock factor protein 1 (Mus musculus, UniProt P38532); experiment: inhibition of MG132-induced HSE-luciferase signal, confirmation, cell-based, NIH3T3, luminescence, dose retest (AID 2382); format: functional;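 also: NIH3T3 fibroblasts with HSF1-driven luciferase reporter stressed by proteasome inhibitor MG132; luminescence from HSF1-driven luciferase expression after 8 hours of MG132 stress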
# T7 sequence (P38532 whole entry): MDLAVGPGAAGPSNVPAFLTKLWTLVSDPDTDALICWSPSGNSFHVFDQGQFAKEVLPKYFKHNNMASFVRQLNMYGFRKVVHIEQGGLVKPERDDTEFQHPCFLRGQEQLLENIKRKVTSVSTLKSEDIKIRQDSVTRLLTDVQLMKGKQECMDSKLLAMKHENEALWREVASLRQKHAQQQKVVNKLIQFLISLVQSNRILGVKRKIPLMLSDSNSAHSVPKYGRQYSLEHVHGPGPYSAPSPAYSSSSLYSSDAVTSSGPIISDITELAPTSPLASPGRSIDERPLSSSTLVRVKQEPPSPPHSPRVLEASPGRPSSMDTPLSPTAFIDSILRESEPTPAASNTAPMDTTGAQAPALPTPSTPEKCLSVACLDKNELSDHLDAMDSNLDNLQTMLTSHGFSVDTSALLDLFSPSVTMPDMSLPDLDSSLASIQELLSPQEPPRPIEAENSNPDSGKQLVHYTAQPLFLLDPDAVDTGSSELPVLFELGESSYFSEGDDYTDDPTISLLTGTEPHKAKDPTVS
# Hexokinase HKDC1 = molecular target: T8, Hexokinase HKDC1 (Homo sapiens, UniProt Q2TB90); experiment: HKDC1 hexokinase inhibitors, dose response, biochemical, W721R variant (AID 504729); format: functional
# T8 sequence (Q2TB90 whole entry): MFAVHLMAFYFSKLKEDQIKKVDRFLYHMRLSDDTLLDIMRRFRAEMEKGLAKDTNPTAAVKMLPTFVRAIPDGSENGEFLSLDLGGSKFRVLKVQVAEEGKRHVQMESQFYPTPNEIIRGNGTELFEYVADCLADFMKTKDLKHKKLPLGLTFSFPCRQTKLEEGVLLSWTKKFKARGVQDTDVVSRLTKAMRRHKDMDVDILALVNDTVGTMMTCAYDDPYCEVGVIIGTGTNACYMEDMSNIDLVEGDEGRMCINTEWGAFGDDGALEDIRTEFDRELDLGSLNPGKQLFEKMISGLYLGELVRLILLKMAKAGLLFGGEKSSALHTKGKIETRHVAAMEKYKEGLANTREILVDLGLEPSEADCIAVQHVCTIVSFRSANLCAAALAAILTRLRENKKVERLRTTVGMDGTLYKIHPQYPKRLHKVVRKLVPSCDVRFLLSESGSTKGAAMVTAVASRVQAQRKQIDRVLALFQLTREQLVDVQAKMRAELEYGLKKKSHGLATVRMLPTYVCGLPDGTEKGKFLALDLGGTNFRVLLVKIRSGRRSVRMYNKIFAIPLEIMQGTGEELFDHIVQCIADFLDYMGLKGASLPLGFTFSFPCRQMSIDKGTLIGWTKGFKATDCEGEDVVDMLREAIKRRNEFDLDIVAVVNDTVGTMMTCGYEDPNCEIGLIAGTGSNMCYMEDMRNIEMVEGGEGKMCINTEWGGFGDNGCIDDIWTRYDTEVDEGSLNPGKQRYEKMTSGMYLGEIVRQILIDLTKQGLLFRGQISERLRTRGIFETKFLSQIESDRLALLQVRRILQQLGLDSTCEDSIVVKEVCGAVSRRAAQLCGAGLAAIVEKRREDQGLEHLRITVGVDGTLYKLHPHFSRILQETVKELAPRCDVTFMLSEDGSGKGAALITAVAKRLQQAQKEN
# [19] = molecular target: Luciferin 4-monooxygenase (Photinus pyralis, UniProt P08659); experiment: Counter Screen for Luciferase-based Assay Positives. [Related pubchem assays: 620, 618, 411 ]
# Luciferin 4-monooxygenase, sequence (P08659 whole entry): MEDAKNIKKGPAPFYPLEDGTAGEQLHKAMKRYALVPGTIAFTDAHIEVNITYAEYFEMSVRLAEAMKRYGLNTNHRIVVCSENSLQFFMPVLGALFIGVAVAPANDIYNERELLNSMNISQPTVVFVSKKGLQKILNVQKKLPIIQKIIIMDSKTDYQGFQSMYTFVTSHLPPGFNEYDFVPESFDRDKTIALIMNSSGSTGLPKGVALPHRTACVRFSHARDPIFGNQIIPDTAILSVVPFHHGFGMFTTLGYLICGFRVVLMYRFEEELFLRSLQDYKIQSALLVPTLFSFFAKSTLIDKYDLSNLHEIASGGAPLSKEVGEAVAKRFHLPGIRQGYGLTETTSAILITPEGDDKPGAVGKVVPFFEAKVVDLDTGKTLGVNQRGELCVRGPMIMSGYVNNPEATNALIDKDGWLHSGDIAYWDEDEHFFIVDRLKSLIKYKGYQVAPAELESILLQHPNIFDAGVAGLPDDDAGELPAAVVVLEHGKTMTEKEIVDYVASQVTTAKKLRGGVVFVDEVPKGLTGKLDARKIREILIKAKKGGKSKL
# HT-1080 = experiment: cytotoxicity in HT1080 fibrosarcoma cells, cell-based, fluorescence readout (AID 620); format: functional; details: Homo sapiens
# HeLa = experiment: HeLa cell cytotoxicity, dose response, cytotoxicity control, 24 h, cherry-picked samples (AID 504726); format: functional, cell-based; details: Homo sapiens;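 also: potency for cytotoxicity as loss of luminescence signal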
smiles,measurement,setting,value
Cc1cc(C(=O)NNC(=O)CCCCC(=O)NNC(=O)c2cc(C)n[nH]2)[nH]n1,EC50,[1],15.5 µM (active)
O=C(NNc1nc2ccccc2s1)C1CC1,EC50,[2],> 55.7 µM (not active)
same,EC50,[3],> 55.7 µM (not active)
Cc1ccc(NC(=O)CN2C(=O)N/C(=C/c3ccccc3OCc3cccc(C(=O)O)c3)C2=O)cc1,IC50,[4],> 100 µM (inactive)
same,IC50,[5],> 100 µM (inactive)
same,IC50,[6],11.1 µM (active)
same,IC50,[7],8.36 µM (active)
Nc1ccc(S(=O)(=O)NNC(=O)C(=O)NNc2ccccn2)cc1,EC50,[8],137 µM (active)
same,EC50,[1],26.5 µM (active)
CC1=NNC(=O)/C1=C\c1cn(-c2ccccc2)nc1-c1ccc(Cl)cc1,EC50,[9],> 60 µM (not active)
same,EC50,[10],3.51 µM (active)
same,EC50,[11],3.63 µM (active)
same,EC50,[12],5 µM (active)
same,EC50,[13],> 30 µM (inconclusive)
same,AC50,INS1,8.09 µM (active)
same,CC50,[14],20.2 µM (active)
same,EC50,[15],16.8 µM (active)
same,IC50,[16],> 80 µM (inactive)
same,EC50,Streptokinase A,4.83 µM (active)
same,EC50,Streptococcus,14.5 µM (active)
same,EC50,Melanocortin receptor 4,> 89.2 µM (inactive)
same,EC50,[17],7.48 µM (active)
same,EC50,[18],6.61 µM (active)
Cc1cccc(N2C(=O)NC(=O)/C(=C\c3ccc4c(c3)CCCN4Cc3ccccc3)C2=O)c1,IC50,Hexokinase HKDC1,27.6 µM (inactive)
COC(=O)c1ccc(-c2nc3cc(N)ccc3o2)cc1,EC50,[19],0.2 µM (active)
same,EC50,HT-1080,> 50 µM (not active)
NNc1nnc2c3cc(F)ccc3n(Cc3ccccc3)c2n1,AC50,HeLa,217 µM (active)
O=C(CCCC(=O)N/N=C/c1ccccc1C(=O)O)N/N=C/c1ccccc1C(=O)O,EC50,[2],> 55.7 µM (not active)
same,EC50,[3],> 55.7 µM (not active)
